How the values were obtained:
SR = test: NCI-60 SRB screen; assay type: cell-based; conditions: Homo sapiens, single dose 10^−5 M, read-out: Growth inhibition (%)
OVCAR-3 = test: NCI-60 SRB screen; assay type: cell-based, human; conditions: Homo sapiens; OVCAR-3; single dose 10^−5 M; read-out: Growth inhibition (%)
NCI-H522 = test: NCI-60 SRB screen; assay type: cell-based, human; conditions: Homo sapiens; NCI-H522; single dose 10^−5 M; read-out: Growth inhibition (%)
MOLT-4 = test: NCI-60 SRB screen; assay type: cell-based; conditions: Homo sapiens; MOLT-4; single dose 10^−5 M; read-out: Growth inhibition (%)
HL-60(TB) = test: NCI-60 SRB screen; assay type: cell-based, human; conditions: Homo sapiens; HL-60 (TB); single dose 10^−5 M; read-out: Growth inhibition (%)
SF-295 = test: NCI-60 SRB screen; assay type: cell-based, human; conditions: Homo sapiens; SF-295; single dose 10^−5 M; read-out: Growth inhibition (%)
OVCAR-4 = test: NCI-60 SRB screen; assay type: cell-based, human; conditions: Homo sapiens; OVCAR-4; single dose 10^−5 M; read-out: Growth inhibition (%)
SW-620 = test: NCI-60 SRB screen; assay type: cell-based; conditions: Homo sapiens; SW-620; single dose 10^−5 M; read-out: Growth inhibition (%)
SK-OV-3 = test: NCI-60 SRB screen; assay type: cell-based, human; conditions: Homo sapiens; SK-OV-3; single dose 10^−5 M; read-out: Growth inhibition (%)
LOX IMVI = test: NCI-60 SRB screen; assay type: cell-based, human; conditions: Homo sapiens, single dose 10^−5 M, read-out: Growth inhibition (%)
NCI-H322M = test: NCI-60 SRB screen; assay type: cell-based, human; conditions: Homo sapiens, single dose 10^−5 M, read-out: Growth inhibition (%)
M14 = test: NCI-60 SRB screen; assay type: cell-based, human; conditions: Homo sapiens; M14; single dose 10^−5 M; read-out: Growth inhibition (%)
UO-31 = test: NCI-60 SRB screen; assay type: cell-based, human; conditions: Homo sapiens; UO-31; single dose 10^−5 M; read-out: Growth inhibition (%)
MALME-3M = test: NCI-60 SRB screen; assay type: cell-based, human; conditions: Homo sapiens, single dose 10^−5 M, read-out: Growth inhibition (%)
IGROV1 = test: NCI-60 SRB screen; assay type: cell-based, human; conditions: Homo sapiens, IGROV-1; IGROV1; single dose 10^−5 M; read-out: Growth inhibition (%)
ACHN = test: NCI-60 SRB screen; assay type: cell-based; conditions: Homo sapiens, single dose 10^−5 M, read-out: Growth inhibition (%)
HOP-92 = test: NCI-60 SRB screen; assay type: cell-based, human; conditions: Homo sapiens; HOP-92; single dose 10^−5 M; read-out: Growth inhibition (%)
COLO 205 = test: NCI-60 SRB screen; assay type: cell-based, human; conditions: Homo sapiens; COLO 205; single dose 10^−5 M; read-out: Growth inhibition (%)
SN12C = test: NCI-60 SRB screen; assay type: cell-based, human; conditions: Homo sapiens, SN12C; SN 12 C; single dose 10^−5 M; read-out: Growth inhibition (%)
HCC-2998 = test: NCI-60 SRB screen; assay type: cell-based, human; conditions: Homo sapiens; HCC-2998; single dose 10^−5 M; read-out: Growth inhibition (%)
SF-268 = test: NCI-60 SRB screen; assay type: cell-based, human; conditions: Homo sapiens; SF-268; single dose 10^−5 M; read-out: Growth inhibition (%)
OVCAR-8 = test: NCI-60 SRB screen; assay type: cell-based, human; conditions: Homo sapiens; OVCAR-8; single dose 10^−5 M; read-out: Growth inhibition (%)
786-0 = test: NCI-60 SRB screen; assay type: cell-based; conditions: Homo sapiens; 786-0; single dose 10^−5 M; read-out: Growth inhibition (%)
NCI-H226 = test: NCI-60 SRB screen; assay type: cell-based, human; conditions: Homo sapiens; NCI-H226; single dose 10^−5 M; read-out: Growth inhibition (%)
HOP-62 = test: NCI-60 SRB screen; assay type: cell-based, human; conditions: Homo sapiens; HOP-62; single dose 10^−5 M; read-out: Growth inhibition (%)
SK-MEL-5 = test: NCI-60 SRB screen; assay type: cell-based, human; conditions: Homo sapiens; SK-MEL-5; single dose 10^−5 M; read-out: Growth inhibition (%)
HCT-15 = test: NCI-60 SRB screen; assay type: cell-based, human; conditions: Homo sapiens; HCT-15; single dose 10^−5 M; read-out: Growth inhibition (%)
K-562 = test: NCI-60 SRB screen; assay type: cell-based, human; conditions: Homo sapiens, K562; K-562; single dose 10^−5 M; read-out: Growth inhibition (%)
HCT-116 = test: NCI-60 SRB screen; assay type: cell-based, human; conditions: Homo sapiens; HCT-116; single dose 10^−5 M; read-out: Growth inhibition (%)
A549/ATCC = test: NCI-60 SRB screen; assay type: cell-based, human; conditions: Homo sapiens, single dose 10^−5 M, read-out: Growth inhibition (%)
NCI-H460 = test: NCI-60 SRB screen; assay type: cell-based, human; conditions: Homo sapiens; NCI-H460; single dose 10^−5 M; read-out: Growth inhibition (%)
EKVX = test: NCI-60 SRB screen; assay type: cell-based, human; conditions: Homo sapiens, single dose 10^−5 M, read-out: Growth inhibition (%)
TK-10 = test: NCI-60 SRB screen; assay type: cell-based, human; conditions: Homo sapiens; TK-10; single dose 10^−5 M; read-out: Growth inhibition (%)
SK-MEL-28 = test: NCI-60 SRB screen; assay type: cell-based; conditions: Homo sapiens; SK-MEL-28; single dose 10^−5 M; read-out: Growth inhibition (%)
CCRF-CEM = test: NCI-60 SRB screen; assay type: cell-based; conditions: Homo sapiens, single dose 10^−5 M, read-out: Growth inhibition (%)
SK-MEL-2 = test: NCI-60 SRB screen; assay type: cell-based, human; conditions: Homo sapiens; SK-MEL-2; single dose 10^−5 M; read-out: Growth inhibition (%)
MDA-MB-435 = test: NCI-60 SRB screen; assay type: cell-based; conditions: Homo sapiens, MDA-MB-435, read-out: Growth inhibition (%)
UACC-62 = test: NCI-60 SRB screen; assay type: cell-based, human; conditions: Homo sapiens; UACC-62; single dose 10^−5 M; read-out: Growth inhibition (%)
NCI-H23 = test: NCI-60 SRB screen; assay type: cell-based, human; conditions: Homo sapiens; NCI-H23; single dose 10^−5 M; read-out: Growth inhibition (%)
[1] = system: panel of 60 cancer cell lines; test: NCI-60 SRB screen, mean or range over the panel; assay type: cell-based, human; conditions: Homo sapiens; mean over the cell lines; single dose 10^−5 M; read-out: Mean growth inhibition (%)
HT-29 = test: NCI-60 SRB screen; assay type: cell-based; conditions: Homo sapiens; HT-29; single dose 10^−5 M; read-out: Growth inhibition (%)
CAKI-1 = test: NCI-60 SRB screen; assay type: cell-based, human; conditions: Homo sapiens; CAKI-1; single dose 10^−5 M; read-out: Growth inhibition (%)
UACC-257 = test: NCI-60 SRB screen; assay type: cell-based, human; conditions: Homo sapiens, UACC-257; UACC-275 (so in the source); single dose 10^−5 M; read-out: Growth inhibition (%)
NCI/ADR-RES = test: NCI-60 SRB screen; assay type: cell-based, human; conditions: Homo sapiens, single dose 10^−5 M, read-out: Growth inhibition (%)
KM12 = test: NCI-60 SRB screen; assay type: cell-based, human; conditions: Homo sapiens; KM12; single dose 10^−5 M; read-out: Growth inhibition (%)

With `O=C1C(=Cc2ccccc2[N+](=O)[O-])Sc2c(F)cccc21` [Compound 2c, 7-Fluoro-2-(2-nitrobenzylidene)[1]benzothiophen-3(2H)-one] the inhibition at 10 µM (SR) was 37.2%, the inhibition at 10 µM (OVCAR-3) was 70.8% and the inhibition at 10 µM (NCI-H522) was 2.94%. It also gave an inhibition at 10 µM (MOLT-4) of 19.8%, an inhibition at 10 µM (HL-60(TB)) of 28.8% and an inhibition at 10 µM (SF-295) of 27%. The inhibition at 10 µM (OVCAR-4) was 40.5%, the inhibition at 10 µM (SW-620) was 68.8% and the inhibition at 10 µM (SK-OV-3) was 2.42%. The inhibition at 10 µM (LOX IMVI) was 11.1%, the inhibition at 10 µM (NCI-H322M) was 1.98% and the inhibition at 10 µM (M14) was -1.11%. It also gave an inhibition at 10 µM (UO-31) of 29.9%, an inhibition at 10 µM (MALME-3M) of 12.6% and an inhibition at 10 µM (IGROV1) of 66.5%. It also gave an inhibition at 10 µM (ACHN) of 7.28%, an inhibition at 10 µM (HOP-92) of -11.4% and an inhibition at 10 µM (COLO 205) of -6.61%. The inhibition at 10 µM (SN12C) was 7.57%, the inhibition at 10 µM (HCC-2998) was -11.4% and the inhibition at 10 µM (SF-268) was 5.43%. For the same molecule, the inhibition at 10 µM (OVCAR-8) was 6.75%, the inhibition at 10 µM (786-0) was -11% and the inhibition at 10 µM (NCI-H226) was 23.5%. For the same molecule, the inhibition at 10 µM (HOP-62) was 20.4%, the inhibition at 10 µM (SK-MEL-5) was 8.44% and the inhibition at 10 µM (HCT-15) was -1.05%. It also gave an inhibition at 10 µM (K-562) of 67.8%, an inhibition at 10 µM (HCT-116) of 80.5% and an inhibition at 10 µM (A549/ATCC) of 4.91%. The inhibition at 10 µM (NCI-H460) was 59.2%, the inhibition at 10 µM (EKVX) was 15.6% and the inhibition at 10 µM (TK-10) was -30.9%. For the same molecule, the inhibition at 10 µM (SK-MEL-28) was -4.83%, the inhibition at 10 µM (CCRF-CEM) was 26.3% and the inhibition at 10 µM (SK-MEL-2) was -9.11%. It also gave an inhibition at 10 µM (MDA-MB-435) of -12.1%, an inhibition at 10 µM (UACC-62) of 60.9% and an inhibition at 10 µM (NCI-H23) of 13.3%. It also gave an inhibition at 10 µM [1] of 11.5%, an inhibition at 10 µM (HT-29) of -7.17% and an inhibition at 10 µM (CAKI-1) of 85.1%. For the same molecule, the inhibition at 10 µM (UACC-257) was 78.8%, the inhibition at 10 µM (NCI/ADR-RES) was 13.5% and the inhibition at 10 µM (KM12) was 3.27%.

Reference: article PMC8330742, “New benzothieno[2,3-c]pyridines as non-steroidal CYP17 inhibitors: design, synthesis, anticancer screening, apoptosis induction, and in silico ADME profile studies” (Journal of Enzyme Inhibition and Medicinal Chemistry, 2021)
